Experimental data reported in ChEMBL document CHEMBL1135977, “Comparison of 3D structures and AT(1) binding properties of pyrazolidine-3,5-diones and tetrahydropyridazine-3,6-diones with parent antihypertensive drug irbesartan” (J Med Chem, 2002).

Columns and labels:
[1] = target: T1, Type-1 angiotensin II receptor (Homo sapiens, UniProt P30556); assay: In vitro binding affinity towards Angiotensin II receptor, type 1 of human hepatoma cell line PLC-PRF-5
T1 sequence (P30556 whole entry): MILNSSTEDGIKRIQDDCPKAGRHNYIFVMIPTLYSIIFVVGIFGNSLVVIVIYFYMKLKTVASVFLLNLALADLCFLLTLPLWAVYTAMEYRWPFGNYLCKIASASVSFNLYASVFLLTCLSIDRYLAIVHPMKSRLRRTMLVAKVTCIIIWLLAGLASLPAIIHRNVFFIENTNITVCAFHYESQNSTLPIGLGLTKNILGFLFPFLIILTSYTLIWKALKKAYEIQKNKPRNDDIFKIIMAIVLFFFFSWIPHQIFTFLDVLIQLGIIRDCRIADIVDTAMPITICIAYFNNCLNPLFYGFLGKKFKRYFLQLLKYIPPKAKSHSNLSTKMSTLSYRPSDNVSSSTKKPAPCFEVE

[2] = Inhibition of AII(50 nM) induced intracellular [Ca2+] increase in PLC-PRF cells; format: functional, cell-based; conditions: Homo sapiens

Row | Ki [1] | IC50 [2] | SMILES
1 | 14 nM | 9 nM | CCCCN1C(=O)CC2(CCCC2)C(=O)N1Cc1ccc(-c2ccccc2-c2nn[nH]n2)cc1
2 | – | 28 nM | CCCCN1C(=O)C2(CCCC2)C(=O)N1Cc1ccc(-c2ccccc2-c2nn[nH]n2)cc1
3 | 80 nM | 102 nM | CCCCN1C(=O)C2(CCCC2)CC(=O)N1Cc1ccc(-c2ccccc2-c2nnn[nH]2)cc1
4 | – | 4 nM | CCCCC1=NC2(CCCC2)C(=O)N1Cc1ccc(-c2ccccc2-c2nnn[nH]2)cc1 [IRBESARTAN]
